Test results: PMC8733726, “Dioctanoyl Ultrashort Tetrabasic β-Peptides Sensitize Multidrug-Resistant Gram-Negative Bacteria to Novobiocin and Rifampicin” (Frontiers in Microbiology, 2021)
Converted amounts (≈) assume the structure as drawn. Like-named read-outs stand apart in the source and are kept apart here.

Key:
[1] = test system: wild-type P. aeruginosa PAO1; assay: microbe, parasite or virus in culture; type: cell-based, Pseudomonas aeruginosa; details: for MIC: Pseudomonas aeruginosa, read-out: MICantibiotic; for MICcombo: antibiotic with dUSTBβP 3 at 8 μg/mL
From the text: (§1) Overnight-grown bacterial culture diluted in saline to 0.5 McFarland turbidity was successively diluted 1:50 in MHB to achieve a final concentration of 5 × 10^5 CFU/mL for inoculation. The antibiotic and adjuvant were serially diluted 2-fold along the x-axis and y-axis, respectively, resulting in varying concentrations of both agents in each well. […] Confirmation of turbidity was done using an EMax Plus microplate reader (Molecular Devices, United States) at a wavelength of 590 nm. Wells comprising MHB alone or in the presence of bacterial cells were used as negative or positive controls, respectively. Fractional inhibitory concentration index (FICI) is determined by adding the FICs of both antibiotic and adjuvant. The FIC of the antibiotic is calculated by dividing the MIC of the antibiotic in the presence of the adjuvant by the MIC of the antibiotic alone. Similarly, the FIC of the adjuvant is calculated by dividing the MIC of the adjuvant in the presence of the antibiotic by the MIC of the adjuvant alone.

[2] = test system: wild-type A. baumannii ATCC 17978; assay: Checkerboard assay; type: cell-based, Acinetobacter baumannii; details: for MICcombo: antibiotic with dUSTBβP 3 at 8 μg/mL; for MIC: Acinetobacter baumannii, ATCC17978, 18 h, read-out: MICantibiotic
From the text: as §1

[3] = test system: wild-type E. coli ATCC 25922; assay: microbe, parasite or virus in culture; type: cell-based, Escherichia coli; details: for MICcombo: antibiotic with dUSTBβP 3 at 8 μg/mL; for MIC: Escherichia coli, ATCC25922, 18 h, read-out: MICantibiotic
Experimental: The adjuvant activities of dUSTBβPs were evaluated using checkerboard assay as previously described ([Berry et al., 2019]). Overnight-grown bacterial culture diluted in saline to 0.5 McFarland turbidity was successively diluted 1:50 in MHB to achieve a final concentration of 5 × 10^5 CFU/mL for inoculation. The antibiotic and adjuvant were serially diluted 2-fold along the x-axis and y-axis, respectively, resulting in varying concentrations of both agents in each well. Subsequently, the 96-well plate was incubated with equal volumes of bacterial inoculum at 37°C for 18 h. Confirmation of turbidity was done using an EMax Plus microplate reader (Molecular Devices, United States) at a wavelength of 590 nm. Wells comprising MHB alone or in the presence of bacterial cells were used as negative or positive controls, respectively. Fractional inhibitory concentration index (FICI) is determined by adding the FICs of both antibiotic and adjuvant. The FIC of the antibiotic is calculated by dividing the MIC of the antibiotic in the presence of the adjuvant by the MIC of the antibiotic alone. Similarly, the FIC of the adjuvant is calculated by dividing the MIC of the adjuvant in the presence of the antibiotic by the MIC of the adjuvant alone. FICI ≤ 0.5, 0.5 < x ≤ 4, and >4 were deemed synergistic, additive, and antagonistic, respectively ([Meletiadis et al., 2010]).

[4] = test system: MDR E. coli clinical isolates; assay: Resistance phenotype (MICs of antibiotics) of MDR clinical isolates; type: cell-based, Escherichia coli; details: Escherichia coli, read-out: MIC
[5] = test system: MDR P. aeruginosa clinical isolates; assay: as above; type: cell-based, Pseudomonas aeruginosa; details: Pseudomonas aeruginosa
[6] = test system: MDR E. cloacae clinical isolates; assay: as above; type: cell-based, Enterobacter cloacae; details: Enterobacter cloacae, read-out: MIC
[7] = test system: MDR K. pneumoniae clinical isolates; assay: as above; type: cell-based, Klebsiella pneumoniae; details: Klebsiella pneumoniae
[8] = test system: MDR A. baumannii clinical isolates; assay: as above; type: cell-based, Acinetobacter baumannii; details: Acinetobacter baumannii, read-out: MIC
[9] = 18 h, PAO1, antibiotic alone (Supplementary Table 7)
[10] = ATCC 17978, antibiotic alone (Supplementary Table 7)
[11] = ATCC 25922, antibiotic alone (Supplementary Table 7)

Structure (SMILES)	MIC [1, 9] [mg/L]	MICcombo ([2]; ATCC 17978) [µg/mL]	MIC [2, 10] [mg/L]	MICcombo ([3]; ATCC 25922) [µg/mL]	MIC [3, 11] [mg/L]	MICcombo ([1]; PAO1) [µg/mL]	MIC ([4]; 94393 (mcr-1 +)) [mg/L]	MIC ([4]; 94474 (mcr-1 +)) [mg/L]	MIC [4]; 107115 [mg/L]	MIC ([5]; 262-101856, read-out: MIC) [mg/L]	MIC ([5]; 264-104354, read-out: MIC) [mg/L]	other results
CC[C@H]1OC(=O)[C@H](C)[C@@H](O[C@H]2C[C@@](C)(OC)[C@@H](O)[C@H](C)O2)[C@H](C)[C@@H](O[C@@H]2O[C@H](C)C[C@H](N(C)C)[C@H]2O)[C@](C)(O)C[C@@H](C)C(=O)[C@H](C)[C@@H](O)[C@]1(C)O [Erythromycin]	256 (≈ 349 µM)	1	16	0.25	64							
C=C[C@]1(C)C[C@@H](OC(=O)CO)[C@]2(C)[C@H](C)CC[C@]3(CCC(=O)[C@H]32)[C@@H](C)[C@@H]1O [Pleuromutilin]	1020 (≈ 2710 µM)	4	256	0.5	64	256						
C[C@H]1[C@H](NC(=O)/C(=N\OC(C)(C)C(=O)O)c2csc(N)n2)C(=O)N1S(=O)(=O)O [Aztreonam]	4 (≈ 9.19 µM)	32	64	0.063	0.25	4	≤ 0.12	≤ 0.12	> 64	32 (≈ 73.5 µM)	64 (≈ 147 µM)	MIC ([5]; 259-96196, read-out: MIC): 32 mg/L (≈ 73.5 µM); MIC ([5]; 114228, read-out: MIC): 32 mg/L (≈ 73.5 µM); MIC [6]; 117029: ≤ 0.12 mg/L; MIC [6]; 118564: ≤ 0.12 mg/L; MIC [6]; 121187: ≤ 0.12 mg/L; MIC ([7]; 113250, read-out: MIC): ≤ 0.12 mg/L; MIC ([7]; 113254, read-out: MIC): ≤ 0.12 mg/L; MIC ([7]; 116381, read-out: MIC): 16 mg/L (≈ 36.7 µM)
C[C@@H]1O[C@@H]1P(=O)(O)O [Fosfomycin]	32 (≈ 232 µM)	256	> 256	8	16	2						
CCN1CCN(C(=O)N[C@@H](C(=O)N[C@@H]2C(=O)N3[C@@H]2SC(C)(C)[C@@H]3C(=O)O)c2ccccc2)C(=O)C1=O [Piperacillin]	4 (≈ 7.73 µM)	32	> 128	0.125	2	4						
O=C(N[C@H](CO)[C@H](O)c1ccc([N+](=O)[O-])cc1)C(Cl)Cl [Chloramphenicol]	32 (≈ 99 µM)	64	128	1	2	2	4 (≈ 12.4 µM)	4 (≈ 12.4 µM)	512 (≈ 1580 µM)	2050 (≈ 6340 µM)	4100 (≈ 12700 µM)	MIC [8]; 110193: 128 mg/L (≈ 396 µM); MIC ([8]; AB027): 128 mg/L (≈ 396 µM); MIC ([8]; AB031): 128 mg/L (≈ 396 µM); MIC ([8]; LAC-4): 32 mg/L (≈ 99 µM); MIC ([5]; 259-96196): 1020 mg/L (≈ 3170 µM); MIC ([5]; 91433, read-out: MIC): 8 mg/L (≈ 24.8 µM); MIC [6]; 117029: 8 mg/L (≈ 24.8 µM); MIC ([7]; 113250, read-out: MIC): 4 mg/L (≈ 12.4 µM); MIC ([7]; 113254, read-out: MIC): 2 mg/L (≈ 6.19 µM); MIC ([7]; 116381, read-out: MIC): > 512 mg/L
CCC[C@@H]1C[C@@H](C(=O)N[C@@H]([C@H]2O[C@H](SC)[C@H](O)[C@@H](O)[C@H]2O)[C@H](C)Cl)N(C)C1 [Clindamycin]	2050 (≈ 4820 µM)	64	512	4	64	128						
C[C@H]1COc2c(N3CCN(C)CC3)c(F)cc3c(=O)c(C(=O)O)cn1c23 [Levofloxacin]	0.5 (≈ 1.38 µM)	0.25	0.25	0.002	0.008	0.25	1 (≈ 2.77 µM)	32 (≈ 88.6 µM)	32 (≈ 88.6 µM)	64 (≈ 177 µM)	64 (≈ 177 µM)	MIC [8]; 110193: ≤ 1 mg/L; MIC ([8]; AB027): 8 mg/L (≈ 22.1 µM); MIC ([8]; AB031): 0.25 mg/L (≈ 0.692 µM); MIC ([8]; LAC-4): 2 mg/L (≈ 5.53 µM); MIC ([5]; 259-96196, read-out: MIC): 256 mg/L (≈ 708 µM); MIC [7]; 113250: 0.125 mg/L (≈ 0.346 µM); MIC [7]; 113254: 0.0625 mg/L (≈ 0.173 µM); MIC [7]; 116381: 128 mg/L (≈ 354 µM)
CN[C@H](CC(C)C)C(=O)N[C@H]1C(=O)N[C@@H](CC(N)=O)C(=O)N[C@H]2C(=O)N[C@H]3C(=O)N[C@H](C(=O)N[C@H](C(=O)O)c4cc(O)cc(O)c4-c4cc3ccc4O)[C@H](O)c3ccc(c(Cl)c3)Oc3cc2cc(c3O[C@@H]2O[C@H](CO)[C@@H](O)[C@H](O)[C@H]2O[C@H]2C[C@](C)(N)[C@H](O)[C@H](C)O2)Oc2ccc(cc2Cl)[C@H]1O [Vancomycin]		32		64		256						MIC ([1]; PAO1, 18 h): 256 mg/L (≈ 177 µM); MIC [2]: > 128 mg/L; MIC [3]: 128 mg/L
CC(=O)NC[C@H]1CN(c2ccc(N3CCOCC3)c(F)c2)C(=O)O1 [Linezolid]	1020 (≈ 3040 µM)	64	512	16	256	256						
COc1cc(Cc2cnc(N)nc2N)cc(OC)c1OC [Trimethoprim]	128 (≈ 441 µM)	> 128	> 128	64	512	32						
CN(C)c1cc(NC(=O)CNC(C)(C)C)c(O)c2c1C[C@H]1C[C@H]3[C@H](N(C)C)C(O)=C(C(N)=O)C(=O)[C@@]3(O)C(O)=C1C2=O [TGC, tigecycline]							0.25 (≈ 0.427 µM)	1 (≈ 1.71 µM)	0.25 (≈ 0.427 µM)	32 (≈ 54.6 µM)	32 (≈ 54.6 µM)	MIC [8]; 92247: 0.25 mg/L (≈ 0.427 µM); MIC ([8]; AB027): 4 mg/L (≈ 6.83 µM); MIC ([8]; AB031): 8 mg/L (≈ 13.7 µM); MIC ([8]; LAC-4): < 4 mg/L; MIC ([5]; 259-96196, read-out: MIC): 32 mg/L (≈ 54.6 µM); MIC ([5]; 91433, read-out: MIC): 32 mg/L (≈ 54.6 µM); MIC [6]; 117029: 0.5 mg/L (≈ 0.854 µM); MIC ([7]; 116381, read-out: MIC): 1 mg/L (≈ 1.71 µM)
